Reference: patent US5556859A, “N-(4-pyrimidinyl)amide pesticides” (DowElanco, priority 1994, dated 1996)

Experiments:
[1] = system: cotton aphid (Aphis gossypii); assay: whole plant or invertebrate; conditions: 72 h, read-out: percent mortality, CA
[2] = system: tobacco budworm (Heliothis virescens); assay: Activity against tobacco budworm (TBW); format: in vivo; conditions: 144 h, read-out: percent mortality, TBW
Procedure: In conducting evaluations of insecticidal activity, each test compound was formulated as a 400 ppm solution, and this solution was then diluted with water to give lesser concentrations. The 400 ppm solution was prepared by combining 19.2 mL of 0.05% solution of Tween 20 (polyoxyethylene (20) sorbitan monolaurate) in water with a solution of 8 mg of the compound in 0.8 mL of acetone/EtOH (9/1).
Activity against tobacco budworm (Heliothis virescens) was evaluated as follows. A general purpose lepidoptera artificial diet was diluted to half strength with a 5% non nutritive agar. 8 mL of this diet material was dispensed into each one ounce diet cup. One hour prior to treatment 18 to 20 eggs were dispensed onto the diet surface. The cups were then sprayed with formulated material through a flat-fan nozzle. The test was run using concentrations of 400 ppm and 50 ppm. Treated cups were air dried prior to sealing with plastic caps. The cups were held for 6 days at room temperature. Activity was then rated based on the total number of live and dead larvae, and on the size of live larvae.

[3] = system: beet armyworm (Spodoptera exiqua); assay: whole plant or invertebrate; conditions: 144 h, read-out: percent mortality, BAW
[4] = system: aster leafhopper (Macrosteles fascifrons); assay: whole plant or invertebrate; conditions: 24 h, read-out: percent mortality, ALH
[5] = system: Southern corn rootworm (Diabrotica undecimpuctata howardi Barber); assay: whole plant or invertebrate; conditions: in Zea mays, soil, read-out: percent mortality, SCRW
[6] = system: peanut root knot nematode (Meloidogyne arenaria); assay: whole plant or invertebrate; conditions: in Arachis hypogaea, read-out: percent mortality, RKN
[7] = system: German cockroach (Blattella germanicus); assay: whole plant or invertebrate; conditions: 240 h, read-out: percent mortality, GECR
[8] = system: two spotted spider mite (Tetranychus urticae); assay: whole plant or invertebrate; conditions: 72 h, read-out: percent mortality, TSSM

| Compound | mortality at 400 ppm [1] [%] | mortality at 400 ppm [2] [%] | mortality at 400 ppm [3] [%] | mortality at 400 ppm [4] [%] | mortality at 24 µg/g [5] [%] | mortality at 400 ppm [6] [%] | mortality at 400 ppm [7] [%] | mortality at 400 ppm [8] [%] |
| --- | --- | --- | --- | --- | --- | --- | --- | --- |
| O=C(Cc1ccc(Oc2ccc(F)cc2)cc1)Nc1ccnc(Cl)n1 [Compound 54, 4-(4-fluorophenoxy)phenyl-N-(2-chloro-4-pyrimidinyl)acetamide] | 0 | 60 | 100 | 0 | 0 | 0 | 0 | 0 |
| CCc1nccc(NC(=O)Cc2ccc(Oc3ccc(C#N)cc3)cc2)n1 [Compound 12, 4-(4-cyanophenoxy)phenyl-N-(2-ethyl-4-pyrimidinyl)acetamide] | 100 | 100 | 100 | 100 | 100 | 100 | 100 | 100 |
| O=C(Cc1ccc(OCC(F)(F)F)cc1)Nc1ccnc(-c2ccccc2)n1 [Compound 5, 4-(2,2,2-trifluroethoxy)phenyl-N-(2-phenyl-4-pyrimidinyl)acetamide] | 0 | 0 | 30 | 0 | 0 | 0 | 0 | 0 |
| CCc1nccc(NC(=O)Cc2ccc(OCC(F)(F)F)cc2)n1 [Compound 9, 4-(2,2,2-trifluroethoxy)phenyl-N-(2-ethyl-4-pyrimidinyl)acetamide] | 100 | 100 | 100 | 100 | 0 | 0 | 0 | 0 |
| O=C(Cc1ccc(Oc2ccc(F)cc2)cc1)Nc1ccnc(-c2ccccc2)n1 [Compound 7, 4-(4-fluorophenoxy)phenyl-N-(2-phenyl-4-pyrimidinyl)acetamide] | 100 | 60 | 60 | 0 | 0 | 0 | 60 | 0 |
| Cc1nccc(NC(=O)Cc2ccc(Oc3ccc(C(F)(F)F)cc3)cc2)n1 [Compound 63, 4-(4-trifluoromethylphenoxy)phenyl-N-(2-methyl-4-pyrimidinyl)acetamide] | 100 | 100 | 100 | 60 | 0 | 0 | 100 | 100 |
| COCc1nccc(NC(=O)Cc2ccc(Oc3ccc(C(F)(F)F)cc3)cc2)n1 [Compound 70, 4-(4-trifluoromethylphenoxy)phenyl-N-(2-(methoxymethyl)-4-pyrimidinyl)acetamide] | 90 | 60 | 100 | 0 | 0 | 0 | 100 | 80 |
| O=C(Cc1ccc(Oc2cccc(C(F)(F)F)c2)cc1)Nc1ccnc(C2CCC2)n1 [Compound 71, 4-(3-trifluoromethylphenoxy)phenyl-N-(2-cyclobutyl-4-pyrimidinyl)acetamide] | 0 | 60 | 100 | 0 | 0 | 0 | 100 | 0 |
| CCc1nccc(NC(=O)C(=CN(C)C)c2ccc(Oc3ccc(Cl)cc3)cc2)n1 [Compound 76, 3-(dimethylamino)-N-(2-ethyl-4-pyrimidinyl)-1-(4-(4-chlorophenoxy)phenyl)-2-propenamide] | 100 | 100 | 100 | 100 | 100 | 100 | 80 | 80 |
| O=C(Cc1ccc(Oc2ccc(C(F)(F)F)cc2)cc1)Nc1ccnc(C2CC2)n1 [Compound 67, 4-(4-trifluoromethylphenoxy)phenyl-N-(2-cyclopropyl-4-pyrimidinyl)acetamide] | 100 | 100 | 100 | 60 | 100 | 100 | 100 | 100 |
| CSc1nccc(NC(=O)Cc2ccc(Oc3ccc(F)cc3)cc2)n1 [Compound 6, 4-(4-fluorophenoxy)phenyl-N-(2-methylthio-4-pyrimidinyl)acetamide] | 100 | 90 | 100 | 100 | 100 | 0 | 60 | 0 |
| CCc1nccc(NC(=O)Cc2ccc(Oc3ncc(Br)cn3)cc2)n1 [Compound 14, 4-(5-bromo-2-pyrimidinyloxy)phenyl-N-(2-ethyl-4-pyrimidinyl)acetamide] | 100 | 80 | 100 | 100 | 0 | 0 | 0 | 0 |
| CCc1nccc(NC(=O)Cc2ccc(OC(F)(F)C(F)F)cc2)n1 [Compound 55, 4-(1,1,2,2-tetrafluoroethoxy)phenyl-N-(2-ethyl-4-pyrimidinyl)acetamide] | 100 | 80 | 100 | 100 | 100 | 100 | 100 | 100 |
| CCc1nccc(NC(=O)Cc2ccc(Oc3ccc([N+](=O)[O-])cc3)cc2)n1 [Compound 53, 4-(4-nitrophenoxy)phenyl-N-(2-ethyl-4-pyrimidinyl)acetamide] | 100 | 100 | 100 | 90 | 100 | 100 | 80 | 100 |
| CCNC=C(C(=O)Nc1ccnc(CC)n1)c1ccc(Oc2ccc(C#N)cc2)cc1 [Compound 79, 3-(ethylamino)-N-(2-ethyl-4-pyrimidinyl)-1-(4-(4-cyanophenoxy)phenyl)-2-propenamide] | 100 | 100 | 100 | 80 | 100 | 100 | 100 | 100 |
| CC(C)(C)c1nccc(NC(=O)Cc2ccc(Oc3ccc(C(F)(F)F)cc3)cc2)n1 [Compound 62, 4-(4-trifluoromethylphenoxy)phenyl-N-(2-(1,1-dimethylethyl)-4-pyrimidinyl)acetamide] | 100 | 100 | 100 | 80 | 100 | 0 | 100 | 100 |
